Experimental data taken from ChEMBL document CHEMBL5584362, “Sucurchalasins A and B, Sulfur-Containing Heterodimers of a Cytochalasan and a Macrolide from the Endophytic Fungus Aspergillus spelaeus GDGJ-286” (J Nat Prod, 2024).
Converted amounts (≈) assume the structure as drawn. The source made the active and inactive calls. The calls are words filed in the database; no cut-off is given here.

Tested on: Salmonella typhi
Assay: Antibacterial activity against Salmonella typhi at 25 ug/ml measured after 20 to 45 mins by broth microdilution method
Type: functional, organism-based
Conditions: Salmonella enterica subsp. enterica serovar Typhi; dose 25.0 µg/ml, time 20-45 min

Row | Compound | Activity
1 | CC1=C[C@@H]2/C=C(\C)CC[C@@H](O)[C@@H](O)/C=C/C(=O)[C@]23C(=O)N[C@@H](CC(C)C)[C@@H]3[C@@H]1C | inactive

Tested on: A2780
Assay: Cytotoxicity against human A2780 cells by MTT assay
Type: functional, cell-based
Conditions: not given

Row | Compound | IC50 [µM]
2 | CO[C@H]1CCC[C@H](C)OC(=O)Cc2cc(O)cc(O)c2C(=O)C1 [11ALPHA-METHOXYCURVULARIN] | > 20
3 | CC1=C[C@@H]2/C=C(\C)CC[C@@H](O)[C@@H](O)/C=C/C(=O)[C@]23C(=O)N[C@@H](CC(C)C)[C@@H]3[C@@H]1C | > 20

Tested on: SK-OV-3
Assay: Cytotoxicity against human SK-OV-3 cells by MTT assay
Type: functional, cell-based
Conditions: not given

Row | Compound | IC50 [µM]
4 | CO[C@H]1CCC[C@H](C)OC(=O)Cc2cc(O)cc(O)c2C(=O)C1 [11ALPHA-METHOXYCURVULARIN] | > 20
5 | CC1=C[C@@H]2/C=C(\C)CC[C@@H](O)[C@@H](O)/C=C/C(=O)[C@]23C(=O)N[C@@H](CC(C)C)[C@@H]3[C@@H]1C | > 20

Tested on: HeLa
Assay: Cytotoxicity against human HeLa cells by MTT assay
Type: functional, cell-based
Conditions: not given

Row | Compound | IC50 [µM]
6 | CO[C@H]1CCC[C@H](C)OC(=O)Cc2cc(O)cc(O)c2C(=O)C1 [11ALPHA-METHOXYCURVULARIN] | > 20
7 | CC1=C[C@@H]2/C=C(\C)CC[C@@H](O)[C@@H](O)/C=C/C(=O)[C@]23C(=O)N[C@@H](CC(C)C)[C@@H]3[C@@H]1C | > 20

Tested on: HepG2
Assay: Cytotoxicity against human HepG2 cells by MTT assay
Type: functional, cell-based
Conditions: not given

Row | Compound | IC50 [µM]
8 | CO[C@H]1CCC[C@H](C)OC(=O)Cc2cc(O)cc(O)c2C(=O)C1 [11ALPHA-METHOXYCURVULARIN] | > 20
9 | CC1=C[C@@H]2/C=C(\C)CC[C@@H](O)[C@@H](O)/C=C/C(=O)[C@]23C(=O)N[C@@H](CC(C)C)[C@@H]3[C@@H]1C | > 20

Tested on: Shigella dysenteriae
Assay: Antibacterial activity against Shigella dysenteriae measured after 20 to 45 mins by broth microdilution method
Type: functional
Conditions: time 20-45 min

Row | Compound | MIC [µg/mL]
10 | CO[C@H]1CCC[C@H](C)OC(=O)Cc2cc(O)cc(O)c2C(=O)C1 [11ALPHA-METHOXYCURVULARIN] | > 25

Tested on: Enterococcus faecalis
Assay: Antibacterial activity against Enterococcus faecalis measured after 20 to 45 mins by broth microdilution method
Type: functional
Conditions: time 20-45 min

Row | Compound | MIC [µg/mL]
11 | CO[C@H]1CCC[C@H](C)OC(=O)Cc2cc(O)cc(O)c2C(=O)C1 [11ALPHA-METHOXYCURVULARIN] | > 25
12 | CC1=C[C@@H]2/C=C(\C)CC[C@@H](O)[C@@H](O)/C=C/C(=O)[C@]23C(=O)N[C@@H](CC(C)C)[C@@H]3[C@@H]1C | 6.3 (≈ 15.7 µM)

Tested on: Bacillus subtilis
Assay: Antibacterial activity against Bacillus subtilis measured after 20 to 45 mins by broth microdilution method
Type: functional
Conditions: time 20-45 min

Row | Compound | MIC [µg/mL]
13 | CO[C@H]1CCC[C@H](C)OC(=O)Cc2cc(O)cc(O)c2C(=O)C1 [11ALPHA-METHOXYCURVULARIN] | > 25
14 | CC1=C[C@@H]2/C=C(\C)CC[C@@H](O)[C@@H](O)/C=C/C(=O)[C@]23C(=O)N[C@@H](CC(C)C)[C@@H]3[C@@H]1C | 6.3 (≈ 15.7 µM)

Tested on: Vibrio parahaemolyticus
Assay: Antibacterial activity against Vibrio parahaemolyticus measured after 20 to 45 mins by broth microdilution method
Type: functional
Conditions: time 20-45 min

Row | Compound | MIC [µg/mL]
15 | CO[C@H]1CCC[C@H](C)OC(=O)Cc2cc(O)cc(O)c2C(=O)C1 [11ALPHA-METHOXYCURVULARIN] | > 25

Tested on: Staphylococcus aureus
Assay: Antibacterial activity against Staphylococcus aureus measured after 20 to 45 mins by broth microdilution method
Type: functional
Conditions: time 20-45 min

Row | Compound | MIC [µg/mL]
16 | CO[C@H]1CCC[C@H](C)OC(=O)Cc2cc(O)cc(O)c2C(=O)C1 [11ALPHA-METHOXYCURVULARIN] | > 25

Tested on: Escherichia coli
Assay: Antibacterial activity against Escherichia coli measured after 20 to 45 mins by broth microdilution method
Type: functional
Conditions: time 20-45 min

Row | Compound | MIC [µg/mL]
17 | CO[C@H]1CCC[C@H](C)OC(=O)Cc2cc(O)cc(O)c2C(=O)C1 [11ALPHA-METHOXYCURVULARIN] | > 25

Tested on: Salmonella typhi
Assay: Antibacterial activity against Salmonella typhi measured after 20 to 45 mins by broth microdilution method
Type: functional, Salmonella enterica subsp. enterica serovar Typhi
Conditions: Salmonella enterica; time 20-45 min

Row | Compound | MIC [µg/mL]
18 | CO[C@H]1CCC[C@H](C)OC(=O)Cc2cc(O)cc(O)c2C(=O)C1 [11ALPHA-METHOXYCURVULARIN] | > 25

Tested on: Shigella dysenteriae
Assay: Antibacterial activity against Shigella dysenteriae at 25 ug/ml measured after 20 to 45 mins by broth microdilution method
Type: functional, organism-based
Conditions: dose 25.0 µg/ml, time 20-45 min

Row | Compound | Activity
19 | CC1=C[C@@H]2/C=C(\C)CC[C@@H](O)[C@@H](O)/C=C/C(=O)[C@]23C(=O)N[C@@H](CC(C)C)[C@@H]3[C@@H]1C | inactive

Tested on: Vibrio parahaemolyticus
Assay: Antibacterial activity against Vibrio parahaemolyticus at 25 ug/ml measured after 20 to 45 mins by broth microdilution method
Type: functional, organism-based
Conditions: dose 25.0 µg/ml, time 20-45 min

Row | Compound | Activity
20 | CC1=C[C@@H]2/C=C(\C)CC[C@@H](O)[C@@H](O)/C=C/C(=O)[C@]23C(=O)N[C@@H](CC(C)C)[C@@H]3[C@@H]1C | inactive

Tested on: Staphylococcus aureus
Assay: Antibacterial activity against Staphylococcus aureus at 25 ug/ml measured after 20 to 45 mins by broth microdilution method
Type: functional, organism-based
Conditions: dose 25.0 µg/ml, time 20-45 min

Row | Compound | Activity
21 | CC1=C[C@@H]2/C=C(\C)CC[C@@H](O)[C@@H](O)/C=C/C(=O)[C@]23C(=O)N[C@@H](CC(C)C)[C@@H]3[C@@H]1C | inactive

Tested on: Escherichia coli
Assay: Antibacterial activity against Escherichia coli at 25 ug/ml measured after 20 to 45 mins by broth microdilution method
Type: functional, organism-based
Conditions: dose 25.0 µg/ml, time 20-45 min

Row | Compound | Activity
22 | CC1=C[C@@H]2/C=C(\C)CC[C@@H](O)[C@@H](O)/C=C/C(=O)[C@]23C(=O)N[C@@H](CC(C)C)[C@@H]3[C@@H]1C | inactive
